Results reported in PubChem BioAssay (NCI).
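The compound was tested at five concentrations on cells cultured in 96-well plates, with a 48-hour exposure period. Here, GI50 denotes the concentration required for 50% inhibition of growth. TGI is the concentration that stops growth completely.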

Experiments:
Assay in all cases: growth of human tumour cells (NCI), 48 h
CCRF-CEM leukemia = tested on: CCRF-CEM leukemia
K-562 leukemia = tested on: K-562 leukemia
SK-OV-3 ovarian = tested on: SK-OV-3 ovarian
UO-31 renal = tested on: UO-31 renal
CAKI-1 renal = tested on: CAKI-1 renal
M14 melanoma = tested on: M14 melanoma
IGROV1 ovarian = tested on: IGROV1 ovarian
OVCAR-5 ovarian = tested on: OVCAR-5 ovarian
NCI/ADR-RES ovarian = tested on: NCI/ADR-RES ovarian
SNB-19 CNS = tested on: SNB-19 CNS
HCC-2998 colon = tested on: HCC-2998 colon
COLO 205 colon = tested on: COLO 205 colon
RPMI-8226 leukemia = tested on: RPMI-8226 leukemia
SK-MEL-5 melanoma = tested on: SK-MEL-5 melanoma
BT-549 breast = tested on: BT-549 breast
SF-268 CNS = tested on: SF-268 CNS
MDA-MB-435 = tested on: MDA-MB-435
SK-MEL-28 melanoma = tested on: SK-MEL-28 melanoma
HS 578T breast = tested on: HS 578T breast
HOP-92 NSCLC = tested on: HOP-92 NSCLC
SK-MEL-2 melanoma = tested on: SK-MEL-2 melanoma
OVCAR-8 ovarian = tested on: OVCAR-8 ovarian
TK-10 renal = tested on: TK-10 renal
SN12C renal = tested on: SN12C renal
MDA-MB-231 breast = tested on: MDA-MB-231 breast
HCT-15 colon = tested on: HCT-15 colon
HCT-116 colon = tested on: HCT-116 colon
MALME-3M melanoma = tested on: MALME-3M melanoma
KM12 colon = tested on: KM12 colon
PC-3 prostate = tested on: PC-3 prostate
RXF 393 renal = tested on: RXF 393 renal
NCI-H23 lung = tested on: NCI-H23 lung
LOX IMVI melanoma = tested on: LOX IMVI melanoma
DU-145 prostate = tested on: DU-145 prostate
MCF7 breast = tested on: MCF7 breast
SF-539 CNS = tested on: SF-539 CNS
UACC-257 melanoma = tested on: UACC-257 melanoma
U251 CNS = tested on: U251 CNS
SNB-75 CNS = tested on: SNB-75 CNS
HOP-62 NSCLC = tested on: HOP-62 NSCLC
A549 NSCLC = tested on: A549 NSCLC
T-47D breast = tested on: T-47D breast
OVCAR-4 ovarian = tested on: OVCAR-4 ovarian
HL-60(TB) leukemia = tested on: HL-60(TB) leukemia
NCI-H522 lung = tested on: NCI-H522 lung
SR leukemia = tested on: SR leukemia
786-0 renal = tested on: 786-0 renal
OVCAR-3 ovarian = tested on: OVCAR-3 ovarian
HT29 colon = tested on: HT29 colon
ACHN renal = tested on: ACHN renal
UACC-62 melanoma = tested on: UACC-62 melanoma
MOLT-4 leukemia = tested on: MOLT-4 leukemia
NCI-H460 lung = tested on: NCI-H460 lung
SF-295 CNS = tested on: SF-295 CNS
NCI-H226 lung = tested on: NCI-H226 lung
A498 renal = tested on: A498 renal
SW-620 colon = tested on: SW-620 colon

## O=C1C=CC(=O)N1C1CCCCCCCCCCC1
CCRF-CEM leukemia
  GI50: 0.939 µM
  TGI: 4.93 µM
K-562 leukemia
  GI50: 2.93 µM
  TGI: 12.8 µM
SK-OV-3 ovarian
  GI50: > 65.5 µM
  TGI: > 100 µM
UO-31 renal
  GI50: 3.42 µM
  TGI: 14.2 µM
CAKI-1 renal
  GI50: 5.95 µM
  TGI: 16.3 µM
M14 melanoma
  GI50: 10.4 µM
  TGI: 25.8 µM
IGROV1 ovarian
  GI50: 13.6 µM
  TGI: > 49.2 µM
OVCAR-5 ovarian
  GI50: 19.8 µM
  TGI: 48.7 µM
NCI/ADR-RES ovarian
  GI50: 30.6 µM
  TGI: > 100 µM
SNB-19 CNS
  GI50: > 84.6 µM
  TGI: > 100 µM
HCC-2998 colon
  GI50: 28.9 µM
  TGI: > 73.8 µM
COLO 205 colon
  GI50: 2.78 µM
  TGI: 8.16 µM
RPMI-8226 leukemia
  GI50: 4.91 µM
  TGI: 34 µM
SK-MEL-5 melanoma
  GI50: 16.4 µM
  TGI: 37 µM
BT-549 breast
  GI50: 11.3 µM
  TGI: 24.6 µM
SF-268 CNS
  GI50: 19.2 µM
  TGI: 51.8 µM
MDA-MB-435
  GI50: 13.7 µM
  TGI: 28.5 µM
SK-MEL-28 melanoma
  GI50: 14.5 µM
  TGI: 28.3 µM
HS 578T breast
  GI50: 17.8 µM
  TGI: > 65.3 µM
HOP-92 NSCLC
  GI50: 2.12 µM
  TGI: 7.72 µM
SK-MEL-2 melanoma
  GI50: 16.4 µM
  TGI: 33.8 µM
OVCAR-8 ovarian
  GI50: 13.9 µM
  TGI: 27.4 µM
TK-10 renal
  GI50: 3.35 µM
  TGI: 11.8 µM
SN12C renal
  GI50: 15.6 µM
  TGI: 33 µM
MDA-MB-231 breast
  GI50: 14.5 µM
  TGI: 30 µM
HCT-15 colon
  GI50: 3.72 µM
  TGI: 14.9 µM
HCT-116 colon
  GI50: 2.15 µM
  TGI: 4.94 µM
MALME-3M melanoma
  GI50: 5.07 µM
  TGI: 15.8 µM
KM12 colon
  GI50: 41.2 µM
  TGI: > 100 µM
PC-3 prostate
  GI50: 14.2 µM
  TGI: 30.9 µM
RXF 393 renal
  GI50: 4.96 µM
  TGI: 17.1 µM
NCI-H23 lung
  GI50: 19.1 µM
  TGI: 47.5 µM
LOX IMVI melanoma
  GI50: 2.44 µM
  TGI: 6.72 µM
DU-145 prostate
  GI50: 13.9 µM
  TGI: 27.2 µM
MCF7 breast
  GI50: 3.58 µM
  TGI: 16.3 µM
SF-539 CNS
  GI50: 15.3 µM
  TGI: 29.4 µM
UACC-257 melanoma
  GI50: 13 µM
  TGI: 27.2 µM
U251 CNS
  GI50: 27 µM
  TGI: > 86.9 µM
SNB-75 CNS
  GI50: 12.7 µM
  TGI: > 79.9 µM
HOP-62 NSCLC
  GI50: 31.5 µM
  TGI: > 100 µM
A549 NSCLC
  GI50: 32.8 µM
  TGI: > 100 µM
T-47D breast
  GI50: 3.08 µM
  TGI: 11.3 µM
OVCAR-4 ovarian
  GI50: 11.5 µM
  TGI: 24.2 µM
HL-60(TB) leukemia
  GI50: 5.25 µM
  TGI: 15.9 µM
NCI-H522 lung
  GI50: 1.7 µM
  TGI: 3.37 µM
SR leukemia
  GI50: 2.23 µM
  TGI: 23.8 µM
786-0 renal
  GI50: 16.1 µM
  TGI: 29.7 µM
OVCAR-3 ovarian
  GI50: 6.4 µM
  TGI: 16.2 µM
HT29 colon
  GI50: 7.86 µM
  TGI: 26.4 µM
ACHN renal
  GI50: 2.73 µM
  TGI: 7.69 µM
UACC-62 melanoma
  GI50: 14.7 µM
  TGI: 28.5 µM
MOLT-4 leukemia
  GI50: 3.28 µM
  TGI: 20.1 µM
NCI-H460 lung
  GI50: 81.1 µM
  TGI: > 100 µM
SF-295 CNS
  GI50: 78.7 µM
  TGI: > 100 µM
NCI-H226 lung
  GI50: 9.75 µM
  TGI: 24.3 µM
A498 renal
  GI50: 16.5 µM
  TGI: > 93.7 µM
SW-620 colon
  GI50: 2.59 µM
  TGI: 8.14 µM
